No end group written: not given here. *: point of attachment. Palmitoyl = CCCCCCCCCCCCCCCC(=O)*
Columns and labels:
macrophages (MØs) = experiment: TNF-α secretion from LPS-activated MØs incubated with VIP materials; type: cell-based
Protocol: (§1) The anti-inflammatory effect of VIPAMs were explored by incubating MOs and DCs with LPS and different VIP materials at low (i.e. 1 μM) or high (20 μM) concentrations (FIG. 41A, FIG. 41B, and FIG. 41C).

dendritic cells (DCs) [1] = experiment: CD86 expression on DCs incubated with VIP materials; type: cell-based; conditions: for CD86 expression on activated DCs: with LPS
Protocol: as §1

dendritic cells (DCs) [2] = experiment: TNF-α secretion from LPS-activated DCs incubated with VIP materials; type: cell-based; conditions: low (1 μM) or high (20 μM) concentration
Protocol: as §1

dendritic cells (DCs) [3] = experiment: CCL22 production from DCs treated with VIP formulations; type: cell-based; conditions: 24 hours; for DC CCL22 production: immature and mature DCs; for CCL22 production from immature DCs: vs no stimulus
Protocol: Thus, CCL22 production from DCs treated with different VIP formulations was evaluated.

[4] = cited from earlier work
[5] = Zeta potential measurement of the zwitterion-like peptide region alone; type: physicochemical
From the text: The alternating charge groups of (KE)4 at neutral pH can create local dipole moments that allow for intermicellar complexation yielding the observed twining behavior. At low pH and high pH utilized, not all of the glutamic acids or lysines will be protonated or deprotonated, respectively, but the local change in (KE)4 block charge is significant enough to repulse one another yielding individual thread-like micelles.

[6] = Micelle morphology and diameter by negative stain TEM; type: physicochemical; conditions: concentrations above CMC
Protocol: Micelle morphology was assessed by negative stain transmission electron microscopy (TEM). TEM grids (200 mesh) with standard thickness carbon support films were purchased from Electron Microscopy Sciences and glow discharged for 45 seconds (Pelco Easiglow) to impart a negative charge. Product solutions (5 μL) were added to freshly glow-discharged films and incubated for 5 minutes. Filter paper was used to wick away excess solution and 5 μL of nanotungsten (Nanoprobes, Inc.) was immediately added. After 5 minute of incubation, grids were blotted dried and stored for later use. Samples were imaged with a JEOL JEM-1400 TEM at 120 kV for shape assessment. Tilt series images were collected at 200 kV, spot size 4, gun lens of 5, and extraction voltage of 3950 sA at a nominal 23,000× magnification with an underfocus of 1 sm. Tilt increments were collected every 2 degrees with a tilt range of ±70°, starting at 0°, with the negative half of the tilt series collected using FEI Xplore3D. Frames were aligned using IMOD with the patch-tracking algorithm using the entire imaged area for frame alignment and reconstructed with the weighted back projection algorithm. Micellar diameters were measured using ImageJ software (NIH). Three different spots from each micelle were measured and the results from three separate micelles were averaged for each group.

[7] = Micelle/peptide secondary structure by circular dichroism; type: physicochemical; conditions: CD analysis; compared with VIP and pVIPA
Protocol: Micelle secondary structure was investigated by circular dichroism using a circular dichroism spectrometer model 62DS (Aviv Biomedical, Inc., Lakewood, NJ). Micelle solutions (40 μM) were loaded into a 1 mm cuvette and measured a total of 10 times from 190 to 250 nm with an interval of 1 nm. The averaged data was curve fit using a linear combination of polylysine basis structures to calculate approximate α-helix, β-sheet, and random coil content.

[8] = Critical micelle concentration (CMC) by DPH fluorescence; type: physicochemical; conditions: VIP amphiphiles
Protocol: Critical micelle concentration (CMC) was measured indirectly by 1,6-diphenyl-1,3,5-hexatriene (DPH) fluorescence. […] Peptide amphiphile solutions were serially diluted in 1 μM 1,6-diphenyl-1,3,5 hexatriene (DPH) containing 0.01% THF and allowed to equilibrate for 1 hour prior to fluorescence measurement (ex. 350 nm, em. 428 nm) by a BioTek Cytation 5 fluorospectrophotometer. The resulting data was fit with two trend lines and the fluorescence inflection point was interpreted as the CMC (Table 4 and FIG. 23, FIG. 24, FIG. 25, FIG. 26, FIG. 27, FIG. 28, FIG. 29, and FIG. 30).
VIPA design and physical characterization: Based on our recent research, two VIPA chemistries were produced. The first VIPA was synthesized by directly conjugating palmitic acid (Palm) to the N-terminus of VIP to form Palm-VIP, […] (SEQ ID NO: 3), (pVIPA—FIG. 39A). The second VIPA included a zwitterion-like peptide region between Palm and VIP yielding PalmK-(EK)4-VIP, […] (SEQ ID NO: 4) (pzVIPA—FIG. 39B). […] While the addition of the hydrophilic block may have been expected to maintain or decrease the CMC, peptide folding to orient the most hydrophilic section externally can induce bending in the PA that may prevent straightforward micellar packing. […] This increased length is likely due to the intermicellar electrostatic complexation we have previously described for similar triblock PAs. […]

dendritic cells (DCs) [9] = conditions: after 48 hours of incubation; previous results; cited from earlier work
[10] = low (1 μM) or high (20 μM) concentration

CCCCCCCCCCCCCCCC(=O)O [Palm, palmitic acid, reference compound]
TNF-α secretion from activated MØs (macrophages (MØs); [10]): no TNF-α nor CD86 regulation | CD86 expression on activated DCs (dendritic cells (DCs) [1]; [10]): no TNF-α nor CD86 regulation | TNF-α secretion from activated DCs (dendritic cells (DCs) [2]): no TNF-α nor CD86 regulation | DC CCL22 production (dendritic cells (DCs) [3]): no impact on CCL22 induction

N[C@@H](CCC(=O)O)C(=O)O [glutamic acid]
pKa [4]: 4.07

-Lys-Glu-Lys-Glu-Lys-Glu-Lys-Glu- (KEKEKEKE) [(KE)4]
Zeta Potential ([5]; pH 2): 31.4 ± 2.9 mV | Zeta Potential ([5]; pH 7): −7.8 ± 1.2 mV | Zeta Potential ([5]; pH 11): −18.1 ± 4.7 mV

Palm-VIP [pVIPA]
TNF-α secretion from activated MØs (macrophages (MØs); [10]): unable to enhance the TNF-α suppressive effects of VIP | micelle shape [6]: cylindrical micelles | CD86 expression in immature DCs (dendritic cells (DCs) [1]; high concentration, no LPS): significantly increased | CD86 expression on activated DCs (dendritic cells (DCs) [1]; high concentration (20 μM)): enhanced | TNF-α secretion from activated DCs (dendritic cells (DCs) [2]): completely nullified VIP effects | CCL22 production from mature DCs (dendritic cells (DCs) [3]; high concentration, vs LPS-stimulated mature DC control): enhanced CCL22 production | CCL22 production from immature DCs (dendritic cells (DCs) [3]; high concentration): induced greater CCL22 production

PalmK-(EK)4-VIP (K(Palmitoyl)EKEKEKEKHSDAVFTDNYTRLRKQMAVKKYLNSILN-NH2; not fully specified) [pzVIPA]
TNF-α secretion from activated MØs (macrophages (MØs); effect only at high concentration (20 μM)): nearly completely abrogated | micelle shape [6]: braided micelles | CD86 cell surface expression on immature DCs (dendritic cells (DCs) [1]; no LPS): no increase | CD86 expression on activated DCs (dendritic cells (DCs) [1]; high concentration (20 μM)): significantly limited | TNF-α secretion from activated DCs (dendritic cells (DCs) [2]): maintained VIP-based TNF-α secretion | α-helical conformation [7]: more abundant | CCL22 production from immature DCs (dendritic cells (DCs) [3]; high concentration): induced greater CCL22 production | CMC [8]: 9.3 µM

Vasoactive intestinal peptide (HSDAVFTDNYTRLRKQMAVKKYLNSILN) [VIP, reference compound]
TNF-α secretion from activated MØs (macrophages (MØs); [10]): modestly reduce | CCL22 production (dendritic cells (DCs) [9]): induces significant CCL22 production | CD86 expression on activated DCs (dendritic cells (DCs) [1]; [10]): modestly reduce | TNF-α secretion from activated DCs (dendritic cells (DCs) [2]): modestly reduce | DC CCL22 production (dendritic cells (DCs) [3]): unable to induce

— patent publication US12006350B2, “Triblock peptide amphiphiles, micelles and methods of use” (The Curators of the University of Missouri, priority 2017, dated 2024)
